Laboratory results from a melting point compilation (Tetko et al.; mined from patent text by program, amines drawn as free bases though some values may be those of a salt).

SMILES	melting point [°C]
O=C(NCc1ccco1)Nc1cc(N2CC(c3ccccc3)CC2=O)ccn1 (stereo unspecified)	158 to 160
Cc1cccc(NC(=O)NCC(=O)N(CC(=O)OC2(C)CCCCC2)c2ccccc2)c1	192
O=C(O)C=CC(=O)NCCC(F)=C(F)F	64 to 66
CC(C)CC(NC(=O)OC(C)(C)C)C(=O)NCCC(=O)O (stereo unspecified)	91 to 92
CSC1NC(N)=CC(=O)N1C (stereo unspecified)	255
CCCCCCCCCCCCSC1c2cccc(O)c2C(=O)c2c(O)cccc21	76
C=C1N(c2cccc3ccccc23)C(=O)OC12CCN(Cc1ccccc1)CC2	130 to 131
CCNCC1CCN(c2nc3c(cc2F)c(=O)c(C(=O)O)cn3C2CC2)C1 (stereo unspecified)	268 to 270
Cc1nc2cnccc2n1-c1ccc2c(c1)CC(C#N)C2 (stereo unspecified)	174 to 176
COc1c(N2CCC(N)C(C)(C)C2)c(F)cc2c(=O)c(C(=O)O)cn(C3CC3)c12 (stereo unspecified)	222 to 224
CN(Cc1ccccc1)C(=O)c1cc2ccccc2c(-c2ccccc2Cl)n1	128
CC(=O)OC1CSC(Oc2cccc(-c3ccc(F)cn3)c2)C(OC(C)=O)C1OC(C)=O (stereo unspecified)	113
COc1ccc(Oc2ccc(OC(=O)NC(C)CCCC(C)C)cc2)cc1 (stereo unspecified)	64 to 65
COc1ccc(-c2c(C(=O)O)c(=O)n(C)c3ccc(Cl)cc23)cc1OC	230 to 232
CCOC(=O)c1ccc(-c2cnc3c(c2)N(Cc2cc(F)ccc2F)C(=O)CN3)cc1	201 to 203
COc1cccc(Nc2cc(-c3nnc(C)o3)ccn2)c1	192 to 193
CCOC(=O)COc1cc2c(c(Cl)c1Cl)C(=O)C(CC#C[Si](C)(C)C)(c1ccc(Cl)cc1)C2 (stereo unspecified)	103 to 104
CC(F)(C(N)=O)c1ccc(OS(=O)(=O)C(F)(F)F)cc1 (stereo unspecified)	75 to 78
COc1cc(CCC(=O)C2=C(Cl)CCC2)cc(OC)c1OC	93
Oc1nc(NCc2ccc(F)cc2)nc(Nc2cccc(C(F)(F)F)c2)n1	266 to 268
CCOC(=O)CC(=O)c1ccc(NC(C)=O)cc1	93 to 94
O=C1c2ccccc2C(=O)N1CC(Br)(c1ccccc1)C(Br)Br (stereo unspecified)	175 to 176
N#CNc1ccccc1I	117 to 118
COCCc1ccc(OCC(O)CNC(C)COc2ccc(O)c(C(N)=O)c2)cc1 (stereo unspecified)	139 to 142

SMILES	melting point [°C]
Cc1ccc(C(=O)c2c(O)cc(C(=O)O)cc2[N+](=O)[O-])cc1	250 to 251
CCCn1c2cc(OCc3ccccc3)ccc2c2ccnc(C)c21	113
Cc1ccc(C2CCCN2S(=O)(=O)c2ccc(C)cc2)cc1 (racemic)	124
CCOC(=O)CN1C(=O)C(N2C(=O)c3ccccc3C2=O)CCCc2ccccc21 (stereo unspecified)	79 to 81
COc1cc2c(N)nc(N3CCN(C(=O)C4COc5ccccc5O4)CC3)nc2c(OC)c1OC (stereo unspecified)	269 to 271
Nc1ncnc2c1ncn2[C@@H]1O/C(=C\F)[C@@H](O)[C@H]1O	225 to 230
CCC(CC)Nc1c([N+](=O)[O-])cc(C)c(COC(=O)CCl)c1[N+](=O)[O-]	45 to 48
CCOc1nsc(NC(=O)N(C)C)c1C(N)=O	172
OCc1cccc(Nc2nc(Oc3ccccc3)nc(Oc3ccccc3)n2)c1	49 to 52
O=C(Nc1c(C(O)(C(F)(F)F)C(F)(F)F)ccc2ccccc12)c1cccc(Cl)c1	179 to 181
O=C1NC(=O)C(Cc2cc(Cl)ccc2[N+](=O)[O-])N1 (stereo unspecified)	184 to 186
C1=Nc2c(cnn2-c2ccccc2)C2=N[C@@H](Cc3ccccc3)CN12	255
CC(C)n1nc(-c2sc(C(=O)NCc3ccncc3)nc2-c2ccccc2)ccc1=O	192 to 193
CC(=O)OC1CCC2C3CCC4=CC(=O)CCC4(CO)C3CCC12C (stereo unspecified)	166 to 168
Ic1ccc(OC2CCCC2)cc1	50 to 52
CC(=O)n1c(=O)sc2c(Cl)cccc21	74
Cc1oc(-c2ccccc2)nc1CCc1ccc(/C=C/C=C/C=C2OC(=O)NC2=O)cc1	208 to 210
N#Cc1ccc2[nH]c3c(ccc4cc[nH]c43)c2c1	> 250
CC(=O)c1c(C=O)[nH]c(-c2ccncc2)c1C	208 to 209
C=COCCONC(=O)c1cc(Br)c(F)c(F)c1Nc1ccc(I)cc1F	128 to 130
COC(=O)Nc1nc(-c2ccccc2)c(-c2nc3ccccc3c(=O)n2-c2cccc(Cl)c2)s1	230 to 231
CSc1ccc(C(O)C#CC2(O)CCCC2)cc1 (stereo unspecified)	118 to 120
COc1c(C)c(NC(=O)CC(C)(C)C)c(C)c2c1OCC2c1ccc(C(C)C)cc1 (stereo unspecified)	150 to 151
CN1C(=O)C(c2cn(C)c3ccccc23)=C(c2cn(C)c3ccccc23)C1=O	> 290

SMILES	melting point [°C]
O=C(CCCCl)Nc1cn(-c2cccnc2)nc1Cl	97 to 98
O=C(O)c1n[nH]c(C(=O)O)c1[N+](=O)[O-]	325 to 327
COc1cc(OC)nc(NC(=O)NS(=O)(=O)c2ccccc2OS(=O)(=O)N(C)C)n1	165 to 168
CCCCc1cc2c(=O)n3cc(C(N)=O)ccc3nc2s1	266 to 267
CCOC(=O)C1=C(C)Nc2ccccc2N(C)C1c1cccc([N+](=O)[O-])c1 (stereo unspecified)	113 to 116
CC(=O)Nc1c(I)c(C(=O)NC(CO)CO)c(I)c(C(=O)NC(CO)CO)c1I	> 270
CC1CC(=O)NN=C1c1ccc2c(c1)SCC(=O)N2C (stereo unspecified)	193 to 194
NC(=O)c1cccc(Cn2ccc(OCc3ccc(F)cc3F)c(Br)c2=O)c1	198 to 201
CS(=O)(=O)c1ccc(C(=O)O)c(Cl)c1-c1nccs1	288 to 290
Cc1nc(Sc2ccc(C(F)(F)F)cn2)sc1CC(=O)O	113 to 114
N#Cc1c(N2CCN(C(=O)c3cccs3)CC2)c2cccnc2n(Cc2ccccc2F)c1=O	286
OCC12CC3CC(CC(C3)C1O)C2 (stereo unspecified)	172 to 174
CCC(=O)Nc1ccccc1-c1nc2ccccc2[nH]1	> 200
Oc1cc2ncnc(Nc3cccc(Cl)c3)c2cc1O	233 to 235
COCc1nc2c(C(F)(F)F)cccc2c(O)c1C(=O)Nc1nccs1	260
CCOC(Cc1ccc(OCc2nc(C3CC3)oc2C)c2ccccc12)C(=O)O (stereo unspecified)	166 to 168
CN1CCC(C2=Nc3ccccc3N(C)c3ccccc32)CC1	119 to 121
Cc1nc2c(O)c(CCC(=O)c3ccccc3)c(C(=O)N(C)C)cc2n1C	223 to 224
COc1cccc2c1N(S(=O)(=O)c1ccc(-c3ccc(F)cc3F)cc1)C(C(=O)NCCOc1ccc(C(=O)O)cc1)C2 (stereo unspecified)	234
CCc1nc2c(N)nc3cc(CCCNC(C)=O)ccc3c2n1CC1CCOCC1	209 to 211
COC[C@H]1C[C@@H](n2cnc3c(N[C@H]4CCN(c5ccc(C(F)(F)F)cn5)C4)ncnc32)[C@@H](O)[C@H]1O	166 to 168
Nc1c(CCO)cccc1C(O)c1ccc(Br)cc1 (stereo unspecified)	128 to 129
CC(CCNC1=Nc2cccc3cccc1c23)c1ccncc1 (stereo unspecified)	220 to 221
